The test system of the experiment is fatty liver. Put plainly: High fat diet-induced fatty liver in B6 mice. The note with it: HFD mice; for GSH / Gpx / Grd / SOD: liver; for ALT / AST / TC in liver / TG in liver: administration period of 4 weeks; for liver TC / liver TG: 4 or 8 weeks; for ALT and AST values: compounds administered separately; for liver tissue sections, H&E: treated for 4 weeks, FIG. 5. In kind it is in vivo. How it is done: More than four mice were used in each group of the pre-test, while more than twelve mice were used in each group of the confirmatory test. […] The animal test was carried out according to the guideline for animal experiment of National Health Research Institutes. […] The weight of mice was recorded once a week. The tested animals were grouped randomly into Blank, High Fat Diet control (HFD), Positive Control (PS), and Test group. The animals of Blank were fed with normal feed. The animals of HFD were fed with high fat feed. […] The animals of Test group were fed with high fat feed, and additionally fed with test compounds by a tube. The animals of Blank were fed casually with normal feed for 12 weeks, while the animals of HFD, PS, and Test group were fed casually with high fat feed for 12 weeks. After 8 weeks of feeding, the animals of Blank and HFD were fed with deionized water by a tube once a day; the animals of PS were fed with silymarin by a tube once a day; and the animals of Test Group were fed with test compounds by a tube once a day for a duration of 4 or 8 weeks. Before testing and in the eighth, twelfth, and sixteenth week after testing, blood was collected from the cheek or the heart. At the end of testing, all mice were weighted and then sacrificed, and blood was collected from the cheek or the heart simultaneously. The blood specimens of mice rested at room temperature for one hour to clot, and then the serum was separated by centrifugation in a refrigeration centrifuge at 15,700×g at 4° C. for 5 minutes. Afterwards, biochemical indices of liver function, including aspartate transaminase (AST), alanine aminotransferase (ALT), triglyceride (TG), total cholesterol (TCHO/TC), low-density lipoprotein cholesterol (LDL-C), and high-density lipoprotein cholesterol (HDL-C), were detected by the automatic blood biochemistry analyzer. In addition, abdominal fat and liver specimens were taken from the abdomens of sacrificed mice and weighted to compare the weight of fat and liver and obtain the ratio of liver weight to body weight. […] The cut sections proceeded with H&E staining for histopathological observation. Moreover, the rest of the liver was frozen for preservation and detection of the contents of triglyceride and total cholesterol in the liver. Furthermore, the liver function of animals of each group were analyzed by Galactose Single Point Method, which was recognized and recommended for quantification of remaining liver function in clinical use by U.S. FDA and Ministry of Health and Welfare, Taiwan. […] One hour after the administration, about 0.5 ml of whole blood was taken by using a filter paper to evaluate liver function of mice. The higher the value of GSP was, the worse the remaining liver function would be. (FDA: “Guidance for Industry: Pharmacokinetics in Patients with Impaired. Hepatic Function-Study Design, Data Analysis and Impact on Dosing and. Labeling. 2003. At the end of the test, all mice were sacrificed. […] Afterwards, xylene was replaced with hot paraffin solution. At last, the tissue was embedded with paraffin solution. The finished paraffin specimen was cut into […] paraffin sections by the microtome. The sections were pasted on clean slides, dried at 37° C., and then stained by H&E staining. In order to observe the changes of lesion, fat accumulation, necrosis, or fibrosis in liver cells when there was an ongoing liver damage, liver tissues were H&E stained to evaluate the degree of liver fat accumulation. All the histopathological sections were cut from the same position on the largest right lobe of liver for eliminating bias in subjective observation, and then subject to pathological staining. As for the assessment of semi-quantitative analysis in pathology, it had to be confirmed by a physician or a veterinary pathologist who conducted a double-blind analysis to score (NAS score) and compare all the sections without knowing the test design. […]

Setting [1] is: 2.5 mg/kg, test period of 4 weeks.
Where [2] appears, read: 1.5 mg/kg, test period of 4 weeks.

The structures appear in SMILES notation.

Take `COc1ccc([C@@H]2CC(=O)c3c(O)cc(O)cc3O2)cc1O` [Hesperitin]: the “liver TC” value is reported as “reduce TC in liver significantly”; the “liver TG” value was “reduce TG in liver significantly”; the “ALT and AST values” is “reduce ALT and AST values significantly”. Under setting [1], this compound came in with a GSH of 1742.6 ± 241.5 U/L, a Gpx of 3133.3 ± 376.9 U/L, a Grd of 102.5 ± 28.3 U/L and an SOD of 408.3 ± 66.7 U/L. Besides, where the note is “2.5 mg/kg”, the Abdominal fat weight is recorded as 3.0 ± 0.5 g, the “Increase of body weight” value was 14.5 ± 8.3 g, the Liver weight came to 1.5 ± 0.1 g and the ALT is 36.8 ± 22.1 U/L. Further, under “2.5 mg/kg”, the AST is on record as 72.4 ± 11.2 U/L, the TC in liver worked out at 3.7 ± 0.7 mg/g liver and the TG in liver is reported as 67.8 ± 16.6 mg/g liver. In addition, for the setting “4 weeks”, the “liver antioxidant activity” value is given as “improve antioxidant activity significantly”.
On to `O=C1NS(=O)(=O)c2ccccc21` [Saccharin], for which the “liver TC” value was “reduce TC in liver significantly”; the “ALT and AST values” was “reduce ALT and AST values significantly”. Further, for the setting “1.5 mg/kg”, the Abdominal fat weight was 2.3 ± 0.5 g, the “Increase of body weight” value was found to be 27.7 ± 12.7 g, the Liver weight worked out at 1.5 ± 0.1 g and the ALT was found to be 50.7 ± 29.7 U/L. For the setting “1.5 mg/kg”, the AST came out at 170.4 ± 28.6 U/L, the TC in liver is 2.8 ± 1.5 mg/g liver and the TG in liver is on record as 84.0 ± 41.4 mg/g liver. The “reduction in liver TC content” value (4-week treatment, p<0.005) is reported as “about 56%”.
For the compound `O=C1C[C@@H](c2ccc(O)c(O)c2)Oc2cc(O)cc(O)c21` [Eriodictyol], the “liver TC” value is reported as “reduce TC in liver significantly”; the “liver TG” value is on record as “reduce TG in liver significantly”; the “ALT and AST values” was “reduce ALT and AST values significantly”; the “liver tissue sections, H&E” value is reported as “large vesicular fat droplets within liver cells in liver tissue section were significantly reduced”. Under setting [1], the GSH came out at 1302.0 ± 241.1 U/L, the Gpx is recorded as 3083.3 ± 378.9 U/L, the Grd amounted to 86.9 ± 15.7 U/L and the SOD came to 385.9 ± 34.0 U/L. In addition, the NAS under setting [1] is 1.5 ± 0.8 mg/g liver. Moreover, for the setting “2.5 mg/kg”, the Abdominal fat weight is recorded as 2.7 ± 0.6 g, the “Increase of body weight” value is recorded as 8.3 ± 6.7 g, the Liver weight was 1.3 ± 0.1 g and the ALT turned out to be 33.7 ± 18.5 U/L. For the setting “2.5 mg/kg”, the AST amounted to 100.9 ± 42.0 U/L, the TC in liver was 3.8 ± 1.1 mg/g liver and the TG in liver came out at 43.1 ± 13.1 mg/g liver. Also, under “5.0 mg/kg”, the ALT stood at 41.4 ± 6.3 U/L, the AST is given as 161.4 ± 42.3 U/L, the TC in liver was found to be 3.0 ± 0.9 mg/g liver and the TG in liver came out at 54.2 ± 15.0 mg/g liver. In addition, the “reduction in liver TG content” value (4-week treatment, p<0.005) is “about 67%”. Moreover, for the setting “4 weeks”, the “liver antioxidant activity” value was “improve antioxidant activity significantly” and the “liver damage, NAS” value was “reduce liver damage significantly”.
`CC1CCC(C(C)C)C(O)C1` (centres unmarked) [Menthol]: the “weight of abdominal fat” value was “reduce the weight of abdominal fat in animals significantly”; the “liver TC” value is recorded as “reduce TC in liver significantly”; the “liver TG” value was “reduce TG in liver significantly”; the “ALT and AST values” is “reduce ALT and AST values significantly”. Further, the “liver tissue sections, H&E” value is given as “large vesicular fat droplets within liver cells in liver tissue section were significantly reduced”. Under setting [2], the GSH is 1432.7 ± 104.0 U/L, the Gpx is recorded as 2921.7 ± 640.2 U/L, the Grd amounted to 95.2 ± 16.2 U/L and the SOD is given as 427.9 ± 41.9 U/L. Besides, for the setting “1.5 mg/kg”, the Abdominal fat weight is reported as 2.3 ± 0.6 g, the “Increase of body weight” value was determined as 19.6 ± 5.0 g, the Liver weight turned out to be 1.6 ± 0.2 g and the ALT is reported as 41.5 ± 13.7 U/L. Where the note is “1.5 mg/kg”, this compound registered an AST of 129.9 ± 37.1 U/L, a TC in liver of 4.4 ± 3.5 mg/g liver and a TG in liver of 87.3 ± 72.3 mg/g liver.
Turning to `O=c1c(-c2ccc(O)cc2)coc2c([C@@H]3O[C@H](CO)[C@@H](O)[C@H](O)[C@H]3O)c(O)ccc12` [Puerarin], the “liver TG” value is given as “reduce TG in liver significantly”; the “ALT and AST values” is “reduce ALT and AST values significantly”. Under setting [1], this compound returned a GSH of 1498.1 ± 150.0 U/L, a Gpx of 3581.7 ± 1056.7 U/L, a Grd of 99.0 ± 17.2 U/L and an SOD of 434.5 ± 59.8 U/L. Where the note is “2.5 mg/kg”, the Abdominal fat weight amounted to 2.8 ± 0.3 g, the “Increase of body weight” value was found to be 21.7 ± 3.1 g, the Liver weight worked out at 1.4 ± 0.2 g and the ALT was determined as 34.4 ± 14.7 U/L. Under “2.5 mg/kg”, this compound gave an AST of 66.9 ± 8.5 U/L, a TC in liver of 6.7 ± 2.7 mg/g liver and a TG in liver of 89.4 ± 49.1 mg/g liver. The “liver antioxidant activity” value (4 weeks) is “improve antioxidant activity significantly”.
Consider `O=C(CCc1ccc(O)cc1)c1c(O)cc(O)cc1O[C@@H]1O[C@H](CO)[C@@H](O)[C@H](O)[C@H]1O` [Phloridzin], for which, under setting [1], the GSH came to 1387.7 ± 168.2 U/L, the Gpx came out at 3234.0 ± 505.1 U/L, the Grd was found to be 82.2 ± 33.6 U/L and the SOD is reported as 411.5 ± 87.5 U/L. Further, where the note is “2.5 mg/kg”, the Abdominal fat weight was determined as 2.3 ± 0.6 g, the “Increase of body weight” value amounted to 13.7 ± 10.7 g, the Liver weight was determined as 1.3 ± 0.1 g and the ALT was 35.7 ± 9.1 U/L. For the same compound, where the note is “2.5 mg/kg”, the AST amounted to 161.9 ± 96.2 U/L, the TC in liver was 2.9 ± 0.5 mg/g liver and the TG in liver was found to be 48.9 ± 14.1 mg/g liver.

The record behind these values is patent US20240335404A1, “SUBSTITUTED ESTERS CONTAINING POLYOLS AND SACCHARIDES FOR TREATING HEPATOTOXICITY AND FATTY LIVER DISEASES” (SINEW PHARMA INC., priority 2015, published 2024).
